Results from patent US20080090734A1, “DRUG SCREENING AND TARGET IDENTIFICATION USING SPR IMAGING OF TARGET PROTEIN ARRAYS” (The Trustees of California State University, priority 2006, published 2008).

Experiments:
Experiment in all cases: Antibiotic susceptibility profile
Type in all cases: cell-based, Acinetobacter baumannii
Design in all cases: key: Resistance; Intermediate; Susceptible
[1] = system: A. baumannii clinical isolate LAC 13
Method in brief: (§1)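 Clinical isolates came from nosocomial infections in New York City and Los Angeles and were tested only against antibiotics with established A. baumannii breakpoints. Each result was categorised as resistant (R), intermediate (I) or susceptible (S).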

[2] = system: A. baumannii clinical isolate NY C
Method in brief: as §1

[3] = system: A. baumannii clinical isolate LAC 01
Method in brief: as §1

[4] = system: A. baumannii clinical isolate NY E
Method in brief: as §1

[5] = system: A. baumannii clinical isolate NY A
Method in brief: as §1

[6] = system: A. baumannii reference strain SDF
Method in brief: as §1

[7] = system: A. baumannii clinical isolate LAC 18
Method in brief: as §1

[8] = system: A. baumannii clinical isolate LAC 20
Method in brief: as §1

[9] = system: A. baumannii clinical isolate LAC 07
Method in brief: as §1

[10] = system: A. baumannii clinical isolate NY H
Method in brief: as §1

[11] = system: A. baumannii clinical isolate LAC 15
Method in brief: as §1

[12] = system: A. baumannii clinical isolate NY G
Method in brief: as §1

[13] = system: A. baumannii clinical isolate LAC 11
Method in brief: as §1

[14] = system: A. baumannii clinical isolate LAC 05
Method in brief: as §1

[15] = system: A. baumannii clinical isolate NY B
Method in brief: as §1

[16] = system: A. baumannii clinical isolate LAC 03
Method in brief: as §1

[17] = system: A. baumannii reference strain AYE
Method in brief: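 Clinical isolates from nosocomial infections in New York City and Los Angeles, tested alongside reference strains against only antibiotics having A. baumannii breakpoints; each scored R (resistant), I (intermediate) or S (susceptible).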

[18] = system: A. baumannii clinical isolate NY D
Method in brief: as §1

[19] = system: A. baumannii clinical isolate LAC 04
Method in brief: as §1

[20] = system: A. baumannii clinical isolate LAC 10
Method in brief: as §1

[21] = system: A. baumannii reference strain 15839; conditions: strain 15839 (ATCC)
Method in brief: as §1

[22] = system: A. baumannii clinical isolate LAC 19
Method in brief: as §1

[23] = system: A. baumannii clinical isolate LAC 14
Method in brief: as §1

[24] = system: A. baumannii clinical isolate LAC 02
Method in brief: as §1

[25] = system: A. baumannii clinical isolate LAC 09
Method in brief: as §1

[26] = system: A. baumannii clinical isolate LAC 16
Method in brief: as §1

[27] = system: A. baumannii clinical isolate LAC 12
Method in brief: as §1

[28] = system: A. baumannii reference strain 17978; conditions: strain 17978 (ATCC)
Method in brief: as §1

[29] = system: A. baumannii reference strain 19606; conditions: strain 19606 (ATCC)
Method in brief: as §1

[30] = system: A. baumannii clinical isolate LAC 17
Method in brief: as §1

[31] = system: A. baumannii clinical isolate LAC 06
Method in brief: as §1

[32] = system: A. baumannii clinical isolate NY F
Method in brief: as §1

[33] = system: A. baumannii clinical isolate LAC 08
Method in brief: as §1

SMILES	Antibiotic susceptibility [1]	Antibiotic susceptibility [2]	Antibiotic susceptibility [3]	Antibiotic susceptibility [4]	Antibiotic susceptibility [5]	Antibiotic susceptibility [6]	Antibiotic susceptibility [7]	Antibiotic susceptibility [8]	Antibiotic susceptibility [9]	Antibiotic susceptibility [10]	Antibiotic susceptibility [11]	Antibiotic susceptibility [12]	Antibiotic susceptibility [13]	Antibiotic susceptibility [14]	Antibiotic susceptibility [15]	Antibiotic susceptibility [16]	Antibiotic susceptibility [17]	Antibiotic susceptibility [18]	Antibiotic susceptibility [19]	Antibiotic susceptibility [20]	also measured
CCN1CCN(C(=O)N[C@@H](C(=O)N[C@@H]2C(=O)N3[C@@H]2SC(C)(C)[C@@H]3C(=O)O)c2ccccc2)C(=O)C1=O [PIP, Piperacillin]	R	R	R	R	R	R	R	R	R	R	R	R	R	I	R	R	R	R	R	R	Antibiotic susceptibility [21]: I; Antibiotic susceptibility [22]: R; Antibiotic susceptibility [23]: R; Antibiotic susceptibility [24]: R; Antibiotic susceptibility [25]: R; Antibiotic susceptibility [26]: R; Antibiotic susceptibility [27]: R; Antibiotic susceptibility [28]: S; Antibiotic susceptibility [29]: I; Antibiotic susceptibility [30]: R; Antibiotic susceptibility [31]: S; Antibiotic susceptibility [32]: R; Antibiotic susceptibility [33]: I
CN(C)[C@@H]1C(O)=C(C(N)=O)C(=O)[C@@]2(O)C(O)=C3C(=O)c4c(O)cccc4[C@@](C)(O)[C@H]3C[C@@H]12 [TET, Tetracycline]	R	R	R	R	I	I	R	R	R	R	R	R	R	R	R	R	R	R	I	R	Antibiotic susceptibility [21]: R; Antibiotic susceptibility [22]: I; Antibiotic susceptibility [23]: R; Antibiotic susceptibility [24]: R; Antibiotic susceptibility [25]: R; Antibiotic susceptibility [26]: I; Antibiotic susceptibility [27]: R; Antibiotic susceptibility [28]: S; Antibiotic susceptibility [29]: I; Antibiotic susceptibility [30]: R; Antibiotic susceptibility [31]: R; Antibiotic susceptibility [32]: R; Antibiotic susceptibility [33]: R
NC[C@H]1O[C@H](O[C@H]2[C@H](O)[C@@H](O[C@H]3O[C@H](CO)[C@@H](O)[C@H](N)[C@H]3O)[C@H](N)C[C@@H]2N)[C@H](N)C[C@@H]1O [TOB, Tobramycin]	S	R	R	R	R	S	R	R	R	R	S	I	S	R	R	R	R	R	R	R	Antibiotic susceptibility [21]: R; Antibiotic susceptibility [22]: R; Antibiotic susceptibility [23]: S; Antibiotic susceptibility [24]: R; Antibiotic susceptibility [25]: R; Antibiotic susceptibility [26]: R; Antibiotic susceptibility [27]: S; Antibiotic susceptibility [28]: S; Antibiotic susceptibility [29]: S; Antibiotic susceptibility [30]: R; Antibiotic susceptibility [31]: S; Antibiotic susceptibility [32]: R; Antibiotic susceptibility [33]: R
